Structures can show the parent of a compound that is named as a salt.
Assays:
[1] = pH 1.2
Protocol: (§1) The pH is adjusted to the final value with NaOH 1N). An excess solid was put in glass flasks in the presence of the appropriate dissolution media and the suspensions were shaken at room temperature for 24 hours. Samples were withdrawn after 15, 30, 45, 60 min and 24 hours, filtered and analyzed by means of HPLC assay.

[2] = relative to CPT-11; cited from earlier work
[3] = physchem; details: thermodynamic from solid, room temperature; for solubility thermodynamic at 24 h: Irinotecan hydrocholoride concentration; for solubility: no time given
Protocol: as §1

In the case of `CCc1c2c(nc3ccc(OC(=O)N4CCC(N5CCCCC5)CC4)cc13)-c1cc3c(c(=O)n1C2)COC(=O)[C@]3(O)CC` [Form c, (S)-4,11-Diethyl-3,4,12,14-tetrahydro-4-hydroxy-3,14=dioxo-1 H-pyrano[3',4':6,7]-indolizino[1,2-b]quinolin-9-yl [1,4'-bipiperidine]-1'-carboxylate (irinotecan) hydrochloride], the “more soluble with respect to Form b” value [1] was 2 orders of magnitude.
For `CCc1c2c(nc3ccc(O)cc13)-c1cc3c(c(=O)n1C2)COC(=O)[C@]3(O)CC` [SN-38, 7-ethyl-10-hydroxy 20 (S) camptothecin], the “more cytotoxic than CPT-11” value [2] is given as 100 fold.
For `CCc1c2c(nc3ccc(OC(=O)N4CCC(N5CCCCC5)CC4)cc13)-c1cc3c(c(=O)n1C2)COC(=O)[C@]3(O)CC` [Form b, (S) -4,11-Diethyl-3,4,12,14-tetrahydro-4-hydroxy-3,14-dioxo-1 H-pyrano[3',4':6,7]-indolizino[1,2-b]quinolin-9-yl[1,4'-bipiperidine]-1'-carboxylate hydrochloride], the solubility thermodynamic at 24 h ([3]; deionized water, water, a = deionized water) was 11200 µg/mL, the solubility ([3]; deionized water, water, Water solubility, in water) was roughly 10000 µg/mL and the solubility ([3]; lactic acid buffer of CAMPTOSAR INJECTION, pH 3.5, aqueous buffer, solubility) was 10000 µg/mL. It also gave a solubility thermodynamic at 24 h ([3]; pH 1.2 buffer, pH 1.2, simulated gastric fluid, b = pH 1.2 buffer) of 260 µg/mL and a solubility thermodynamic ([3]; pH 3.5, aqueous buffer, equilibrium solubility, pH value of about 3.5) of less than 20000 µg/mL.
